Where two headings read alike, the source gives them in different places.
Key:
[1] = test system: DAT; conditions: read-out: binding affinity toward DAT IC50; [3H]WIN-35,428; cited from earlier work
[2] = cited from earlier work
[3] = target: serotonin transporters (SERT) (Rattus norvegicus, UniProt P31652); test: [3H]serotonin uptake inhibition via SERT in rat brain synaptosomes; assay type: cell-based
[4] = target: norepinephrine transporters (NET) (Rattus norvegicus, UniProt Q63380); test: [3H]norepinephrine uptake inhibition via NET in rat brain synaptosomes; assay type: cell-based; conditions: times less potent, from IC50 values
[5] = target: dopamine transporters (DAT) (Rattus norvegicus, UniProt P23977); test: [3H]dopamine uptake inhibition via DAT in rat brain synaptosomes; assay type: cell-based
[6] = read-out: [3H]5-HT uptake via SERT IC50, rat brain synaptosomes, 5 nM [3H]serotonin, mean ± SD, n = 3

serotonin transporters (SERT), sequence (P31652 whole entry): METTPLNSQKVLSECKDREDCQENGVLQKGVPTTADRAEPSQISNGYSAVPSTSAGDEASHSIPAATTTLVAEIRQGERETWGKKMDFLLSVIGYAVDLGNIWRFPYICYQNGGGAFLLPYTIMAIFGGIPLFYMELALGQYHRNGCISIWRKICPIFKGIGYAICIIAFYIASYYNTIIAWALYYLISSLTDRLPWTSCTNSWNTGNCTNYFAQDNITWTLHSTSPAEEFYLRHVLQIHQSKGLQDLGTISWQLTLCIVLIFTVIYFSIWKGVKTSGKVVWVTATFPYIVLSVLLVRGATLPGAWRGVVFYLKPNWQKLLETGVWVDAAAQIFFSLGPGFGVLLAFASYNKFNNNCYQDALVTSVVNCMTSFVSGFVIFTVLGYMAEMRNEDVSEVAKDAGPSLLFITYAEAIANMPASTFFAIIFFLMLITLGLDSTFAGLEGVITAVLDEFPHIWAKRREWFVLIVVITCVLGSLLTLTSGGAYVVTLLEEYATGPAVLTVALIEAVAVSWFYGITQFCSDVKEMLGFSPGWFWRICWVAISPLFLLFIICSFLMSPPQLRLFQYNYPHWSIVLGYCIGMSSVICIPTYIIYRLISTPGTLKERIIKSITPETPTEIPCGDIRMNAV
dopamine transporters (DAT), sequence (P23977 whole entry): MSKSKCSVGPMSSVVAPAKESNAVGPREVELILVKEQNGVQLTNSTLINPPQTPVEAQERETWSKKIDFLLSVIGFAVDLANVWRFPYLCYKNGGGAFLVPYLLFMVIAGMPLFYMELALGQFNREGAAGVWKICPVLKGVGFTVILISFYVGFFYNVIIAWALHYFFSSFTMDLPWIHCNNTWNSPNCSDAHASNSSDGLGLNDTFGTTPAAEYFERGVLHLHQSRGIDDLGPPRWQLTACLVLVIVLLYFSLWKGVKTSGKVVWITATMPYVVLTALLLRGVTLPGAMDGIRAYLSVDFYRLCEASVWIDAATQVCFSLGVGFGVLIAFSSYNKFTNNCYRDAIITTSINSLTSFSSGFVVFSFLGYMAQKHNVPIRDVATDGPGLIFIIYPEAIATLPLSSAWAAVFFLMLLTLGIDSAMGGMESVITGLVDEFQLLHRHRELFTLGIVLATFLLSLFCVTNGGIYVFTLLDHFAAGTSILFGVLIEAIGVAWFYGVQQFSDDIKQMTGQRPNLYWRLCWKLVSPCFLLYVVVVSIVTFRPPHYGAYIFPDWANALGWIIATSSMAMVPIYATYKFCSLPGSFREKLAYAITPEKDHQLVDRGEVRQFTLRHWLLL
norepinephrine transporters (NET), sequence (Q63380 1-617): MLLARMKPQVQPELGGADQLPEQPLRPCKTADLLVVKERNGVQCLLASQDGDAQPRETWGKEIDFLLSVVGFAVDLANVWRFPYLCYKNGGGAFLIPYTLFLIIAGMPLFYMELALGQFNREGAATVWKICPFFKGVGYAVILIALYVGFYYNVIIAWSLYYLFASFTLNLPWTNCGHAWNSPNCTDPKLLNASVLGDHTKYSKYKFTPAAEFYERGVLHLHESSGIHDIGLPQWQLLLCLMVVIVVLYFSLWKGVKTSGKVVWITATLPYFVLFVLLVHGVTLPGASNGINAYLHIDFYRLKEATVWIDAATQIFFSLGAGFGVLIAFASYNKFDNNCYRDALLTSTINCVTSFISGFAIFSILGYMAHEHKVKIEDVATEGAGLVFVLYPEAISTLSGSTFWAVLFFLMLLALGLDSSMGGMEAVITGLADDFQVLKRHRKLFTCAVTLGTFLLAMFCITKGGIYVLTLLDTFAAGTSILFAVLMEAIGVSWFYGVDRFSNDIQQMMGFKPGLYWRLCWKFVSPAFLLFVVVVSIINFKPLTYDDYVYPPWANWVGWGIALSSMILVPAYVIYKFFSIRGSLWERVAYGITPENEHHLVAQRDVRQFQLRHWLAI

Row | Structure (SMILES) | IC50 [1] [µM] | potency relative to MPH in drug discrimination [2] | IC50 [3, 6] [µM] | potency relative to (±)-threo-4F-MPH at the norepinephrine transporter [4] | IC50 [3] [µM] | IC50 [5] [µM]
1 | COC(=O)[C@H](c1ccc(F)cc1)[C@H]1CCCCN1 (racemic) [(±)-threo-4F-MPH, 4-Fluoromethylphenidate] | 0.035 | about three times more potent than MPH | 8.8 |  |  | 
2 | COC(=O)C(c1ccccc1)C1CCCCN1 (stereo not shown) [MPH, methyl-2-phenyl-2-(piperidin-2-yl)acetate] |  |  |  | around 2.5 | > 10 | 0.131 ± 0.0142
3 | COC(=O)[C@H](c1ccc(F)cc1)[C@H]1CCCCN1 (racemic) [(±)-erythro-4F-MPH, 4-Fluoromethylphenidate] |  |  | > 10 |  |  | 
